In the SangsterLogP compilation one finds logP data, which are given here for 16 compounds.

Molecules are shown by their SMILES.

This data set can be described thus: method code SF-AS, from Rouot, B.; Leclerc, G.; Wermuth, C.; Miesch, F.; Schwartz, J. (1977). Structure-activity relations and problems related to the mechanism of action of clonidine.Journal de Pharmacologie, 8(1)95-106.
Compound `Brc1ccc(NC2=NCCN2)cc1` displayed a logP of 1.75.

Compound `Cc1ccc(Cl)cc1NC1=NCCN1` had a logP of 1.8.

Compound `COc1ccc(OC)c(NC2=NCCN2)c1` returned a logP of 0.97.

For `COc1cc(OC)c(NC2=NCCN2)cc1Cl`, the logP worked out at 1.38.

In turn, `Fc1cccc(F)c1N=C1NCCN1` had a logP of 1.06.

`Oc1cc(Cl)c(NC2=NCCN2)c(Cl)c1` showed a logP of 1.52.

In turn, `Cc1cc(Cl)ccc1NC1=NCCN1` gave a logP of 1.77.

`CC(C)c1cccc(C(C)C)c1NC1=NCCN1`: the logP amounted to 3.04.

The compound `c1ccc(NC2=NCCN2)cc1` returned a logP of 1.01.

For `Cc1cccc(Cl)c1NC1=NCCN1`, the logP amounted to 1.41.

Consider `FC(F)(F)c1ccccc1NC1=NCCN1`, for which the logP was found to be 1.42.

In the case of `Brc1cccc(Br)c1NC1=NCCN1`, the logP amounted to 1.73.

In turn, `COc1cc(C)ccc1NC1=NCCN1` returned a logP of 1.64.

Compound `Clc1ccc(NC2=NCCN2)c(Cl)c1` registered a lipophilicity (logP) of 1.96.

As to `Cc1ccc(NC2=NCCN2)c(Cl)c1`, the logP came to 1.87.

In turn, `Cc1cccc(C)c1NC1=NCCN1` yielded a logP of 1.45.

As usually defined, the logP is a log measure of how a compound divides between an organic and an aqueous phase. High values mean a more lipophilic compound, low ones a more hydrophilic compound.
